Reference: publication PMC9403610, “Efficient screening of pancreatic lipase inhibitors from cod meat hydrolysate through ligand fishing strategy” (Frontiers in Nutrition, 2022)
Where no end group is shown, it is not given here.

Assays:
[1] = target: T1, Porcine pancreatic lipase (PL) (Sus scrofa, UniProt P00591); experiment: Pancreatic lipase inhibition assay (pNPB substrate, absorbance 405 nm); format: biochemical; details: for IC50: pNPB substrate, Tris-HCl pH 7.5, 37°C
T1 construct: purchased Sigma Chemical Co. (St. Louis, MO, USA)
T1 sequence (P00591 1-450): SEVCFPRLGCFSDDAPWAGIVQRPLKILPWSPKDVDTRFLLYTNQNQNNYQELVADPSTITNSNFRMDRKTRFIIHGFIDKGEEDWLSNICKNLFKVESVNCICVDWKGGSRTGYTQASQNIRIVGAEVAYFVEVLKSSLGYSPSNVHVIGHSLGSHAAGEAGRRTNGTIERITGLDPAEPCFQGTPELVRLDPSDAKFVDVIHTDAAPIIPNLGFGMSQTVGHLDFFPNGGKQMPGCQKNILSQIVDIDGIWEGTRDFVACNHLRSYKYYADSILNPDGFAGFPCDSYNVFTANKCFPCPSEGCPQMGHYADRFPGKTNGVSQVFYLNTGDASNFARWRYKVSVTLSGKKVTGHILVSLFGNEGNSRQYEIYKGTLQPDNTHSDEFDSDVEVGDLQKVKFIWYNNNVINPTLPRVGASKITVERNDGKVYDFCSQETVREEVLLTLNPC
Protocol: Grind small pieces of cod meat into surimi, add alkaline protease, and hydrolyze for 2 h. The enzyme was then inactivated by high temperature and centrifuged. Finally, the supernatant was spray dried to obtain cod peptide (CP). According to the method of Hou et al. ([28]), the PL inhibition test was carried out on the protein hydrolysates, its gel chromatography fraction, and the pure peptides. The sample and PL were dissolved in Tris-HCl buffer (pH = 7.5), and pNPB was dissolved in acetonitrile, and diluted with tris-HCl buffer. Add 100 μL of the sample, 200 μL of Tris-HCl buffer, 150 μL of PL (5 mg/mL) to a 1.5 mL EP tube, incubate at 37°C for 10 min, and then add 150 μL of […] pNPB, shake and mix, and incubate at 37°C for 10 min. After the reaction was completed, the absorbance value at 405 nm was measured with a multifunctional microplate reader, and the PL inhibitory activity was calculated according to the following equation: Inhibition rate (%) = 1- (absorbance in the presence of inhibitor/[…] in negative control) × 100%.

[2] = target: T1, Porcine pancreatic lipase (PL); experiment: Assay of PLIs kinetics (reversibility, Lineweaver-Burk plots); format: biochemical; details: from slope of Lineweaver-Burk plot vs. peptide concentration; read-out: Ki (competitive inhibition constant)
Protocol: According to the method reported in the previous literature, with a slight modification, the type of inhibition of PL by active peptides was determined ([29], [30]). The peptide (0.8 mg/mL, final concentration) was reacted with different concentrations (0, 5, 10, 15, 20 mg/mL) of PL for 10 min, then 10 mM pNPB was added for 10 min. the absorbance of the reaction system at a wavelength of 405 nm was measured to determine the reversibility of the reaction. Next, the optimal PL concentration (5 mg/mL) and peptide (0, 0.8 mg/mL, final concentration) were fixed, and pNPB with different concentrations (1, 2, 3, 4, and 5 mM) was added to react for 10 min, a value was measured every 30 s, and the wavelength was 405 nm. The Lineweaver-Burk double reciprocal curve was used to determine the maximum velocity (Vmax) and Michaelis–Menten constant (Km). The slope and y-intercept of the Lineweaver-Burk plot vs. peptide concentration give a straight line with the intercepts on the horizontal axis as Ki (competitive inhibition constant) and K'i values (uncompetitive inhibition constant), respectively.

Row | IC50 [1] | Ki [2] | remaining activity at 6000 µg/mL ([1]; peptide concentration 6 mg/mL, read-out: residual activity on PL) | Substance
1 | 1000 µM | 4190 µM | – | GSPPPSG [GSPPPSG]
2 | 1350 µM | 1400 µM | ~10% | KLEGDLK [KLEGDLK]
